Patent US7220730B2, “Cancer specific radiolabeled conjugates regulated by the cell cycle for the treatment and diagnosis of cancer” (Board of Regents of the University of Nebraska, priority 2003, dated 2007)

Assays:
[1] = Biodistribution in athymic mice bearing AR-expressing OVCAR-3 tumors; type: in vivo
Description: (§1) With regard to ^125IUdR-3′-DHT, the biodistribution of the reagent (0.001–0.010 mCi/mouse; […]) in athymic mice bearing AR-expressing OVCAR-3 tumors is seen in Table 3. Additionally, the efficacy of the reagent against the intraperitoneal OVCAR-3 tumors after 6 fractionated doses (0.1 mCi/dose/mouse; […]) is seen in Table 4.

[2] = system: OVCAR-3 cells; experiment: Binding of ^125IUdR-DHT to OVCAR-3 cells in vitro (Scatchard plot, with/without excess cold DHT)
Method: To generate a Scatchard plot for the binding of ^125IUdR-DHT to OVCAR-3 cells, OVCAR-3 cells were thawed from a stock or freshly harvested by a lavage of the peritoneal cavity of athymic mice bearing intraperitoneal ascites OVCAR-3 tumors. The cells were twice washed with full media (RPMI 1640 medium with 2 mM L-glutamine adjusted to contain 1.5 g/L sodium bicarbonate, 4.5 g/L glucose, 10 mM HEPES, and 1.0 mM sodium pyruvate and supplemented with 0.01 mg/ml bovine insulin, 80%; fetal bovine serum, 20%). The cells were spun at 450 rpm for 10 minutes to collect a cell pellet and were then resuspended in full media to achieve approximately 5×10^6 cells/mL. The cells were counted and their viability was determined by Trypan Blue staining. “Cold” dihydrotestosterone (DHT) was dissolved in 95% ethanol to create a stock solution of 5 μg/mL. Similarly, 95% ethanol was added to ^125IUdR-DHT to produce 250,000 cpm/100 μL.
The tubes were capped and gently vortexed. The “total applied” counts were then determined in a gamma counter. […] A known volume of the supernatant from the centrifugation was transfered to new plastic tubes and counted in a gamma counter to determine the “free” counts. The cell pellet with the remainder of the supernatant was then counted in the gamma counter. “Bound” counts were then determined by subtracting counts associated with the supernatant from the remaining counts.

[3] = system: OVCAR-3 cells; experiment: Stability of ^125IUdR-DHT in growth medium in the presence or absence of OVCAR-3 cells (TLC); type: in vitro ADME
Method: OVCAR-3 cells in full growth medium (RPMI 1640 medium with 2 mM L-glutamine adjusted to contain 1.5 g/L sodium bicarbonate, 4.5 g/L glucose, 10 mM HEPES, and 1.0 mM sodium pyruvate and supplemented with 0.01 mg/ml bovine insulin, 80%; fetal bovine serum, 20%) at 1×10^6 cells per flask were plated onto three Petri dishes and allowed to attach for 24 hours. As a control, one dish without cells was subjected to the same treatments. After 24 hours, the cells were trypsinized from one dish to determine cell number and viability. The media was then aspirated from the remaining dishes, including the control, and replaced with 1 mL of fresh media. 0.1 mCi of ^125IUdR-DHT in 0.10 mL of ethanol was added to all of the dishes. The dishes were incubated at 37° C. At 0, 5, 15, 30, 60, 120, 180, and 240 minutes, 10 μL of media was removed from each of the dishes of which 2 μL was added to a silica gel TLC plate. Additionally, 2 μL was added to glass gamma counter tubes as standards. The TLC plates were run with a 3:1 mixture of ethyl acetate and hexane (v/v). When the solvent front approached the end of the plate, the plate was removed from the solvent, dried, and cut into strips. The standards and the strips were then counted. The percent recovered ^125IUdR-DHT was calculated as a ratio of the intact ^125IUdR-DHT at a given timepoint divided by the intact ^125IUdR-DHT at the 0 minute timepoint (see FIG. 2A). Similar calculations were used to determine the kinetics of the appearance of ^125IUdR in the medium, which was determined to occur at a rate of 8.5%/hour (FIG. 2B). This rate is in comparison to the disappearance of ^125IUdR-DHT from the media at a rate of 16%/hour. […] The inclusion of a negatively-charged monophosphate assists in the retention of these compounds in the cell.
This allows at least a partial retention of the negatively charged succinate inside the cell where the next hydrolytic step frees ^125IUdR to be taken up by DNA.

[4] = system: intraperitoneal OVCAR-3 tumors; experiment: Efficacy against intraperitoneal OVCAR-3 tumors after 6 fractionated doses; type: in vivo, athymic mice; details: 0.1 mCi/dose/mouse
Description: as §1

[5] = molecular target: T1, sex hormone binding globulin (SHBG) (Homo sapiens, UniProt P04278); experiment: Binding of 5′-MP-^125IUdR-3′-DHT to sex hormone binding globulin (charcoal-dextran, size-exclusion HPLC); details: FIG. 3
T1 sequence (P04278 30-402): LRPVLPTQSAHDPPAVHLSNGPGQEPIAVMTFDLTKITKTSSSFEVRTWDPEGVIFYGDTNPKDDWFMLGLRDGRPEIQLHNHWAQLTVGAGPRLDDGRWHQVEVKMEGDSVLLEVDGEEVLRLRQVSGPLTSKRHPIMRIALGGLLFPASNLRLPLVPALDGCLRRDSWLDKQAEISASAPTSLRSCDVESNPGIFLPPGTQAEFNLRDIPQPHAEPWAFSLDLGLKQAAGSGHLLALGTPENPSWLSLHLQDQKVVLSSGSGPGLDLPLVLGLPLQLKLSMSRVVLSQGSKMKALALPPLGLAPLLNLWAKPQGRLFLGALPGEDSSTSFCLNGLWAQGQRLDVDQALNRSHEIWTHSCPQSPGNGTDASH
Method: The tubes were then vortexed for about 30 seconds and incubated for 10 minutes in a water bath at 37° C. The samples were then incubated at 0–4° C. for 3 hours. 0.1 mL aliquots were removed from the samples and counted in a gamma counter. To each tube, 0.4 mL of ice-cold charcoal-dextran solution was added and the tubes were incubated on ice for 15 minutes. The samples were then centrifuged at 4° C. for 20 minutes at 1,000 rpm. 0.5 ml aliquots were taken for gamma-counting and the residue was also counted. Selected samples were analyzed by size-exclusion HPLC (tandem TSK2000 and TSK3000 size exclusion columns (TosoHaas; Montgomeryville, Pa.) with a guard column using PBS, pH7.2 as the eluant).

[6] = Hydrophobicity / aqueous solubility of the conjugates (descriptive); type: physicochemical
[7] = OVCAR-3 cells, full growth medium, 37° C.

For CC12CCC(=O)CC1CCC1C2CCC2(C)C(OC(=O)CCC(=O)OC3CC(n4cc([125I])c(=O)[nH]c4=O)OC3CO)CCC12 (stereo not shown) [^125IUdR-DHT, ^125IUdR-3′-succinyl-DHT], the “Percent injected dose per gram tissue” value ([1]; Blood, 1.5 h, average of n = 10) was 29.61 Percent injected dose per gram tissue, the “Percent injected dose per gram tissue” value ([1]; Blood, 24 h, average of n = 10) was 0.25 Percent injected dose per gram tissue and the “Percent injected dose per gram tissue” value ([1]; Blood, 48 h, average of n = 10) was 0.30 Percent injected dose per gram tissue. The “Percent injected dose per gram tissue” value ([1]; Blood, 72 h, average of n = 10) was 0.17 Percent injected dose per gram tissue, the “Percent injected dose per gram tissue” value ([1]; Brain, 1.5 h) was 1.91 Percent injected dose per gram tissue and the “Percent injected dose per gram tissue” value ([1]; Brain, 24 h) was 0.03 Percent injected dose per gram tissue. For the same compound, the “Percent injected dose per gram tissue” value ([1]; Brain, 48 h) was 0.05 Percent injected dose per gram tissue, the “Percent injected dose per gram tissue” value ([1]; Brain, 72 h) was 0.04 Percent injected dose per gram tissue and the “Percent injected dose per gram tissue” value ([1]; Kidney, 1.5 h) was 17.67 Percent injected dose per gram tissue. The “Percent injected dose per gram tissue” value ([1]; Kidney, 24 h) was 0.20 Percent injected dose per gram tissue, the “Percent injected dose per gram tissue” value ([1]; Kidney, 48 h) was 0.18 Percent injected dose per gram tissue and the “Percent injected dose per gram tissue” value ([1]; Kidney, 72 h) was 0.22 Percent injected dose per gram tissue. The “Percent injected dose per gram tissue” value ([1]; Liver, 1.5 h) was 11.07 Percent injected dose per gram tissue, the “Percent injected dose per gram tissue” value ([1]; Liver, 24 h) was 0.24 Percent injected dose per gram tissue and the “Percent injected dose per gram tissue” value ([1]; Liver, 48 h) was 0.32 Percent injected dose per gram tissue. For the same compound, the “Percent injected dose per gram tissue” value ([1]; Liver, 72 h) was 0.33 Percent injected dose per gram tissue, the “Percent injected dose per gram tissue” value ([1]; OVCAR-3 tumor (IP), 1.5 h) was 20.70 Percent injected dose per gram tissue and the “Percent injected dose per gram tissue” value ([1]; OVCAR-3 tumor (IP), 24 h) was 5.66 Percent injected dose per gram tissue. The “Percent injected dose per gram tissue” value ([1]; OVCAR-3 tumor (IP), 48 h) was 5.41 Percent injected dose per gram tissue, the “Percent injected dose per gram tissue” value ([1]; OVCAR-3 tumor (IP), 72 h) was 3.54 Percent injected dose per gram tissue and the “Percent injected dose per gram tissue” value ([1]; Spleen, 1.5 h) was 15.60 Percent injected dose per gram tissue. For the same compound, the “Percent injected dose per gram tissue” value ([1]; Spleen, 24 h) was 0.59 Percent injected dose per gram tissue, the “Percent injected dose per gram tissue” value ([1]; Spleen, 48 h) was 0.44 Percent injected dose per gram tissue and the “Percent injected dose per gram tissue” value ([1]; Spleen, 72 h) was 0.59 Percent injected dose per gram tissue. For the same compound, the “Percent injected dose per gram tissue” value ([1]; Uterus, 1.5 h) was 11.43 Percent injected dose per gram tissue, the “Percent injected dose per gram tissue” value ([1]; Uterus, 24 h) was 0.54 Percent injected dose per gram tissue and the “Percent injected dose per gram tissue” value ([1]; Uterus, 48 h) was 0.66 Percent injected dose per gram tissue. For the same compound, the “Percent injected dose per gram tissue” value ([1]; Uterus, 72 h) was 0.97 Percent injected dose per gram tissue, the “Percent injected dose per gram tissue” value ([1]; solid OVCAR-3 (approximately 2 mice per group), 1.5 h) was 12.94 Percent injected dose per gram tissue and the “Percent injected dose per gram tissue” value ([1]; solid OVCAR-3 (approximately 2 mice per group), 24 h) was 0.67 Percent injected dose per gram tissue. The “Percent injected dose per gram tissue” value ([1]; solid OVCAR-3 (approximately 2 mice per group), 48 h) was 0.28 Percent injected dose per gram tissue, the “Percent injected dose per gram tissue” value ([1]; solid OVCAR-3 (approximately 2 mice per group), 72 h) was 0.24 Percent injected dose per gram tissue and the “binding to OVCAR-3 cells (Scatchard)” value ([2]; 5 × 10^6 cells, 0–4° C., 14–16 hours) was “single type of binding sites with a high affinity”. The “competition by excess DHT for binding” value ([2]; excess “cold” DHT) was “due to the DHT portion of the drug”, the “rate of appearance of ^125IUdR in the medium” value [3, 7] was 8.5 %/hour and the “rate of disappearance of ^125IUdR-DHT from the media” value [3, 7] was 16 %/hour. The “emergence of “free” ^125IUdR in the growth medium” value ([3]; presence or absence of OVCAR-3 cells) was “requires interaction of the drugs with specific cells”, the median tumor size [4] was 0.244 g and the “range (tumor size)” value [4] was 0.012 to 0.781 g. The mean tumor burden ([4]; average (n = 10) and standard deviation) was 0.304 ± 0.320 g.

With CC12CCC(=O)CC1CCC1C2CCC2(C)C(OC(=O)CCC(=O)OC3CC(n4cc([125I])c(=O)[nH]c4=O)OC3COP(=O)(O)O)CCC12 (stereo not shown) [5′-MP-^125IUdR-3′-DHT, 5′-monophosphate-^125IUdR-3′-succinyl-DHT] the “binding to SHBG” value [5] was “specifically bound” and the “competition of SHBG binding by “cold” DHT” value [5] was “competed away”.

In the case of CC12CCC(=O)CC1CCC1C2CCC2(C)C(OP(=O)(OCC3OC(n4cc([125I])c(=O)[nH]c4=O)CC3O)OC3CCC4C5CCC6CC(=O)CCC6(C)C5CCC34C)CCC12 (stereo not shown) [Conjugate 5, 5′-[^125I]iodo-2′-deoxy-5′-monphosphate-O-(bis-dihydrotestosterone)], the “hydrophilicity / hydrophobicity relative to the other conjugates” value [6] is reported as “most hydrophobic”.
